Source: US20230117324A1, “OXAZINE MONOACYLGLYCEROL LIPASE (MAGL) INHIBITORS” (Hoffmann-La Roche Inc., priority 2018, published 2023)

Target: T1, MAGL (Homo sapiens, UniProt Q99685)
T1 sequence (Q99685 1-303): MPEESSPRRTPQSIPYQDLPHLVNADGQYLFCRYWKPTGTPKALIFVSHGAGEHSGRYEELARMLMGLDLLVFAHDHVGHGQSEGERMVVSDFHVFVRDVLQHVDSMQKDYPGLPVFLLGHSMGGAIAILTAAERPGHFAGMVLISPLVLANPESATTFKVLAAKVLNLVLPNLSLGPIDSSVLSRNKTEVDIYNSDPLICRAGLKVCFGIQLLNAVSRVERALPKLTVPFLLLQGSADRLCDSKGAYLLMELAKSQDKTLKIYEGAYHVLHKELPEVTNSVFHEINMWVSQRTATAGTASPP
Experiment: MAGL inhibition, 2-AG assay (hydrolysis of 2-arachidonoylglycerol, arachidonic acid by mass spectrometry)
Format: biochemical
Conditions: 2-AG assay (footnote [b])
Method: Alternatively, compounds were profiled for MAGL inhibitory activity by determining the enzymatic activity by following the hydrolysis of the natural substrate 2-arachidonoylglycerol (2-AG) resulting in arachidonic acid, which can be followed by mass spectrometry. This assay is hereinafter abbreviated “2-AG assay”.
The 2-AG assay was carried out in 384 well assay plates (PP, Greiner Cat #784201) in a total volume of 20 μL. Compound dilutions were made in 100% DMSO (VWR Chemicals 23500.297) in a polypropylene plate in 3-fold dilution steps to give a final concentration range in the assay from 12.5 μM to […]. 0.25 μL compound dilutions (100% DMSO) were added to 9 μL MAGL in assay buffer (50 mM TRIS (GIBCO, 15567-027), 1 mM EDTA (Fluka, 03690-100 mL), 0.01% (v/v) Tween. After shaking, the plate was incubated for 15 min at RT. To start the reaction, 10 μL 2-arachidonoylglycerol in assay buffer was added. The final concentrations in the assay was […] and 8 μM 2-arachidonoylglyerol. After shaking and 30 min incubation at RT, the reaction was quenched by the addition of 40 μL of ACN containing 4 μM of d8-arachidonic acid. The amount of arachidonic acid was traced by an online SPE system (Agilent Rapidfire) coupled to a triple quadrupole mass spectrometer (Agilent 6460). A C18 SPE cartridge (G9205A) was used in an ACN/water liquid setup. The mass spectrometer was operated in negative electrospray mode following the mass transitions 303.1→259.1 for arachidonic acid and 311.1→267.0 for d8-arachidonic acid. The activity of the compounds was calculated based on the ratio of intensities [arachidonic acid/d8-arachidonic acid].

Row | IC50 [nM] | SMILES
1 | 28 | CC(Oc1ccc(C(F)(F)F)cc1Cl)C1CN(C(=O)N2CC[C@@H]3OCC(=O)N[C@@H]3C2)C1 (single isomer, unassigned) [Example 75, (4aR,8aS)-6-(3-(R or S)-(1-(2-chloro-4-(trifluoromethyl)phenoxy)ethyl)azetidine-1-carbonyl)hexahydro-2H-pyrido[4,3-b][1,4]oxazin-3(4H)-one]
2 | 1 | CC(Oc1ccc(C(F)(F)F)cc1Cl)C1CN(C(=O)N2CC[C@@H]3OCC(=O)N[C@@H]3C2)C1 (single isomer, unassigned) [Example 76, (4aR,8aS)-6-(3-(S or R)-(1-(2-Chloro-4-(trifluoromethyl)phenoxy)ethyl)azetidine-1-carbonyl)hexahydro-2H-pyrido[4,3-b][1,4]oxazin-3(4H)-one]
3 | 0.2 | O=C1CO[C@H]2CCN(C(=O)N3CCC(C(c4ccccc4)c4ccc(OCCF)cc4)CC3)C[C@H]2N1 (single isomer, unassigned) [Example 79, (4aR,8aS)-6-[4-[(S or R)-[4-(2-Fluoroethoxy)phenyl]-phenylmethyl]piperidine-1-carbonyl]-4,4a,5,7,8,8a-hexahydropyrido[4,3-b][1,4]oxazin-3-one]
4 | 0.1 | Cc1ccc(C(c2ccccc2)C2CCN(C(=O)N3CC[C@@H]4OCC(=O)N[C@@H]4C3)CC2)cc1 (single isomer, unassigned) [Example 84, (4aR,8aS)-6-[4-[(S or R)-Phenyl(p-tolyl)methyl]piperidine-1-carbonyl]-4,4a,5,7,8,8a-hexahydropyrido[4,3-b][1,4]oxazin-3-one]
5 | 0.1 | Cc1ccc(C(c2ccccc2)C2CCN(C(=O)N3CC[C@@H]4OCC(=O)N[C@@H]4C3)CC2)cc1 (single isomer, unassigned) [Example 85, (4aR,8aS)-6-(4-((R or S)-Phenyl(p-tolyl)methyl)piperidine-1-carbonyl)hexahydro-2H-pyrido[4,3-b][1,4]oxazin-3(4H)-one]
6 | 0.4 | COc1ccc(C(c2ccccc2)C2CCN(C(=O)N3CC[C@@H]4OCC(=O)N[C@@H]4C3)CC2)cc1OC (single isomer, unassigned) [Example 87, (4aR,8aS)-6-(4-((S or R)-(3,4-Dimethoxyphenyl)(phenyl)methyl)piperidine-1-carbonyl)hexahydro-2H-pyrido[4,3-b][1,4]oxazin-3(4H)-one]
7 | 2.2 | COc1ccc(C(c2ccc(F)cc2)C2CCN(C(=O)N3CC[C@@H]4OCC(=O)N[C@@H]4C3)CC2)cc1OC (single isomer, unassigned) [Example 88, (4aR,8aS)-6-(4-((R or S)-(3,4-Dimethoxyphenyl)(4-fluorophenyl)methyl)piperidine-1-carbonyl)hexahydro-2H-pyrido[4,3-b][1,4]oxazin-3(4H)-one]
8 | 0.6 | COc1ccc(C(c2ccc(F)cc2)C2CCN(C(=O)N3CC[C@@H]4OCC(=O)N[C@@H]4C3)CC2)cc1 (single isomer, unassigned) [Example 89, (4aR,8aS)-6-(4-((R or S)-(4-Fluorophenyl)(4-methoxyphenyl)methyl)piperidine-1-carbonyl)hexahydro-2H-pyrido[4,3-b][1,4]oxazin-3(4H)-one]
9 | 2 | O=C1CO[C@H]2CCN(C(=O)N3CCC(C(c4ccc(F)cc4)c4nc(C5CC5)no4)CC3)C[C@H]2N1 (single isomer, unassigned) [Example 94, (4aR,8aS)-6-(4-((R or S)-(3-Cyclopropyl-1,2,4-oxadiazol-5-yl)(4-fluorophenyl)methyl)piperidine-1-carbonyl)hexahydro-2H-pyrido[4,3-b][1,4]oxazin-3(4H)-one]
10 | 16 | O=C1CO[C@H]2CCN(C(=O)N3CCC(C(c4ccc(F)cc4)c4nc(C5CC5)no4)CC3)C[C@H]2N1 (single isomer, unassigned) [Example 95, (4aR,8aS)-6-(4-((S or R)-(3-Cyclopropyl-1,2,4-oxadiazol-5-yl)(4-fluorophenyl)methyl)piperidine-1-carbonyl)hexahydro-2H-pyrido[4,3-b][1,4]oxazin-3(4H)-one]
11 | 44 | CC(Oc1ccc(C(F)(F)F)cc1F)C1CN(C(=O)N2CC[C@@H]3OCC(=O)N[C@@H]3C2)C1 (single isomer, unassigned) [Example 96, (4aR,8aS)-6-(3-((R or S)-1-(2-Fluoro-4-(trifluoromethyl)phenoxy)ethyl)azetidine-1-carbonyl)hexahydro-2H-pyrido[4,3-b][1,4]oxazin-3(4H)-one]
12 | 16 | CC(Oc1ccc(C(F)(F)F)cc1F)C1CN(C(=O)N2CC[C@@H]3OCC(=O)N[C@@H]3C2)C1 (single isomer, unassigned) [Example 97, (4aR,8aS)-6-(3-((S or R)-1-(2-Fluoro-4-(trifluoromethyl)phenoxy)ethyl)azetidine-1-carbonyl)hexahydro-2H-pyrido[4,3-b][1,4]oxazin-3(4H)-one]
13 | 62 | CC(Oc1ccc(C(F)(F)F)cc1)C1CN(C(=O)N2CC[C@@H]3OCC(=O)N[C@@H]3C2)C1 (single isomer, unassigned) [Example 98, (4aR,8aS)-6-(3-((R or S)-1-(4-(Trifluoromethyl)phenoxy)ethyl)azetidine-1-carbonyl)hexahydro-2H-pyrido[4,3-b][1,4]oxazin-3(4H)-one]
14 | 27 | CC(Oc1ccc(C(F)(F)F)cc1)C1CN(C(=O)N2CC[C@@H]3OCC(=O)N[C@@H]3C2)C1 (single isomer, unassigned) [Example 99, (4aR,8aS)-6-(3-((S or R)-1-(4-(Trifluoromethyl)phenoxy)ethyl)azetidine-1-carbonyl)hexahydro-2H-pyrido[4,3-b][1,4]oxazin-3(4H)-one]
15 | 4 | O=C1CO[C@H]2CCN(C(=O)N3CCC(C(c4ccc(F)cc4)c4ccc(OCCF)cc4)CC3)C[C@H]2N1 (single isomer, unassigned) [Example 100, (4aR,8aS)-6-(4-((R or S)-(4-(2-Fluoroethoxy)phenyl)(4-fluorophenyl)methyl)piperidine-1-carbonyl)hexahydro-2H-pyrido[4,3-b][1,4]oxazin-3(4H)-one]
16 | 99 | CC(c1ccc(C(F)(F)F)cc1)C1CN(C(=O)N2CC[C@@H]3OCC(=O)N[C@@H]3C2)C1 (single isomer, unassigned) [Example 103, (4aR,8aS)-6-(3-((S or R)-1-(4-(Trifluoromethyl)phenyl)ethyl)azetidine-1-carbonyl)hexahydro-2H-pyrido[4,3-b][1,4]oxazin-3(4H)-one]
17 | 111 | CC(c1ccc(C(F)(F)F)cc1)C1CN(C(=O)N2CC[C@@H]3OCC(=O)N[C@@H]3C2)C1 (single isomer, unassigned) [Example 104, (4aR,8aS)-6-(3-((R or S)-1-(4-(Trifluoromethyl)phenyl)ethyl)azetidine-1-carbonyl)hexahydro-2H-pyrido[4,3-b][1,4]oxazin-3(4H)-one]
18 | 434 | O=C1CO[C@H]2CCN(C(=O)N3CC(C(OCC(F)(F)F)c4ccc(F)cc4)C3)C[C@H]2N1 (single isomer, unassigned) [Example 105, (4aR,8aS)-6-[3-(S or R)-[(4-Fluorophenyl)-(2,2,2-trifluoroethoxy)methyl]azetidine-1-carbonyl]-4,4a,5,7,8,8a-hexahydropyrido[4,3-b][1,4]oxazin-3-one]
19 | 318 | O=C1CO[C@H]2CCN(C(=O)N3CC(C(OCC(F)(F)F)c4ccc(F)cc4)C3)C[C@H]2N1 (single isomer, unassigned) [Example 106, (4aR,8aS)-6-[3-(R or S)-[(4-Fluorophenyl)-(2,2,2-trifluoroethoxy)methyl]azetidine-1-carbonyl]-4,4a,5,7,8,8a-hexahydropyrido[4,3-b][1,4]oxazin-3-one]
20 | 0.4 | O=C1CO[C@H]2CCN(C(=O)N3CCC(C(c4ccccc4)c4cccc(OCCF)c4)CC3)C[C@H]2N1 (single isomer, unassigned) [Example 108, (4aR,8aS)-6-(4-((R or S)-(3-(2-Fluoroethoxy)phenyl)(phenyl)methyl)piperidine-1-carbonyl)hexahydro-2H-pyrido[4,3-b][1,4]oxazin-3(4H)-one]
21 | 0.4 | O=C1CO[C@H]2CCN(C(=O)N3CCC(C(c4ccc(F)cc4)c4ccc(OCCF)cc4)CC3)C[C@H]2N1 (single isomer, unassigned) [Example 109, (4aR,8aS)-6-(4-((S or R)-(4-(2-Fluoroethoxy)phenyl)(4-fluorophenyl)methyl)piperidine-1-carbonyl)hexahydro-2H-pyrido[4,3-b][1,4]oxazin-3(4H)-one]
